Experimental data published in patent US20240158446A1, “CYCLIC COMPOUND HAVING SELECTIVE INHIBITORY ACTION ON KRAS OVER HRAS AND NRAS” (CHUGAI SEIYAKU KABUSHIKI KAISHA, priority 2021, published 2024).

How the values were obtained:
[1] = target: GDP-bound HRAS wild-type protein (Homo sapiens, UniProt P01112); assay: Binding to HRAS by surface plasmon resonance (SPR), Single Cycle Kinetics; conditions: for HRAS/KRAS (ratio of KD value with respect to GDP-bound HRAS wild-type protein to KD value with respect to KRAS): SPR KD ratio HRAS/KRAS, class symbols; for HRAS/KRAS (ratio of KD value for HRAS to KD value for KRAS): SPR, GDP-bound HRAS wild-type protein vs GDP-bound KRAS wild-type protein
[2] = target: GDP-bound NRAS wild-type protein (Homo sapiens, UniProt P01111); assay: Binding to NRAS by surface plasmon resonance (SPR), Single Cycle Kinetics; conditions: for NRAS/KRAS (ratio of KD value with respect to GDP-bound NRAS wild-type protein to KD value with respect to KRAS): SPR KD ratio NRAS/KRAS, class symbols; for NRAS/KRAS (ratio of KD value for NRAS to KD value for KRAS): SPR, GDP-bound NRAS wild-type protein vs GDP-bound KRAS wild-type protein
Chain of GDP-bound NRAS wild-type protein (P01111 whole entry): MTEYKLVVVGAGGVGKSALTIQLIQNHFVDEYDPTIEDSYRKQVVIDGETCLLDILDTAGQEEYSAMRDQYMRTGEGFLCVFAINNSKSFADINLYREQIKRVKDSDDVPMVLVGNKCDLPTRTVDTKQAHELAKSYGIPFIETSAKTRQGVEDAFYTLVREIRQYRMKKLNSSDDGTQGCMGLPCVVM

Chain of GDP-bound HRAS wild-type protein (P01112 whole entry): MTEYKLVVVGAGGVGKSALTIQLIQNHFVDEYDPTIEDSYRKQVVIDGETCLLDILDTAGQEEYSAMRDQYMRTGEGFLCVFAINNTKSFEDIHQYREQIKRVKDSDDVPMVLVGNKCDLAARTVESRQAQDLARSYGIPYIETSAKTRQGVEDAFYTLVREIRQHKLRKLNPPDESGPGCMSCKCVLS

Compound | HRAS/KRAS (ratio of KD value with respect to GDP-bound HRAS wild-type protein to KD value with respect to KRAS) [1] | NRAS/KRAS (ratio of KD value with respect to GDP-bound NRAS wild-type protein to KD value with respect to KRAS) [2] | HRAS/KRAS (ratio of KD value for HRAS to KD value for KRAS) [1] | NRAS/KRAS (ratio of KD value for NRAS to KD value for KRAS) [2] | further results
CCCOC[C@H]1C(=O)N[C@@H]([C@@H](C)CC)C(=O)N(C)CC(=O)N(C)[C@H]2C/C=C\CCN(C2=O)[C@@H](Cc2ccc(C(F)(F)F)cc2)C(=O)N(C)CC(=O)N[C@@H](CCc2ccc(Cl)c(Cl)c2)C(=O)N2C[C@H](OCC)C[C@H]2C(=O)NC2(CCC2)C(=O)N(C)[C@@H](C2CCCC2)C(=O)N(C)[C@H](C(=O)N(C)CCC)CC(=O)N1C [PP2830] | A (a compound having 10 or more and less than 20 is denoted as A) | A (a compound having 10 or more and less than 20 is denoted as A) |  |  | 
CC[C@H](C)[C@@H]1NC(=O)[C@H](CC(C)C)N(C)C(=O)C[C@@H](C(=O)N2CCOCC2)N(C)C(=O)[C@H](C2CCCC2)N(C)C(=O)C2(CCC2)NC(=O)[C@@H]2[C@H](O)CCN2C(=O)[C@H](CCc2cc(F)c(C(F)(F)F)c(F)c2)NC(=O)CN(C)C(=O)[C@H](Cc2ccc(C(F)(F)F)cc2)N2CCCCC[C@@H](C2=O)N(C)C(=O)CN(C)C1=O [PP0873] |  |  | B (a compound having 3 or more and less than 10 is denoted as B) | A (a compound having 10 or more and less than 20 is denoted as A) | 
CCO[C@@H]1C[C@H]2C(=O)NC3(CCC3)C(=O)N(C)[C@@H](C3CCCC3)C(=O)N(C)[C@H](C(=O)N(C)C)CC(=O)N(C)[C@@H](CC)C(=O)N[C@@H]([C@@H](C)CC)C(=O)N(C)CC(=O)N(C)[C@H]3CCCCCN(C3=O)[C@@H](Cc3ccc4ccsc4c3)C(=O)N(C)CC(=O)N[C@@H](CCc3cc(F)c(C(F)(F)F)c(F)c3)C(=O)N2C1 [PP0910] |  |  | B (a compound having 3 or more and less than 10 is denoted as B) | B (a compound having 3 or more and less than 10 is denoted as B) | 
CCCOC[C@H]1C(=O)N[C@@H]([C@@H](C)CC)C(=O)N(C)CC(=O)N(C)[C@H]2C/C=C\CCN(C2=O)[C@@H](Cc2ccc(C)cc2)C(=O)N(C)CC(=O)N[C@@H](CCc2cc(F)c(C(F)(F)F)c(F)c2)C(=O)N2C[C@H](OCC)C[C@H]2C(=O)NC2(CC(C)(C)C2)C(=O)N(C)[C@@H](C2CCCC2)C(=O)N(C)[C@H](C(=O)N(C)CC)CC(=O)N1C [PP1577] |  |  |  |  | HRAS/KRAS (ratio of KD value for HRAS to KD value for KRAS) ([1]; KD ratio class): B (a compound having 3 or more and less than 10 is denoted as B); NRAS/KRAS (ratio of KD value for NRAS to KD value for KRAS) ([2]; KD ratio class): B (a compound having 3 or more and less than 10 is denoted as B)
CCOC[C@H]1C(=O)N[C@@H]([C@@H](C)CC)C(=O)N(C2CC2)CC(=O)N(C)[C@H]2C/C=C\CCN(C2=O)[C@@H](CC2CCCCC2)C(=O)N(C)CC(=O)N[C@@H](CCc2ccc(C(F)(F)F)c(OC)c2)C(=O)N2C[C@H](OCC)C[C@H]2C(=O)N(C)C2(CCC2)C(=O)N(C)[C@@H](C2CCCC2)C(=O)N(C)[C@H](C(=O)N(C)C)CC(=O)N1C [PP2342] |  |  | A (a compound having 10 or more and less than 20 is denoted as A) | A (a compound having 10 or more and less than 20 is denoted as A) | 
CCC[C@H]1C(=O)N[C@@H](C2CCOCC2)C(=O)N(C)CC(=O)N(C)[C@H]2C/C=C\CCN(C2=O)[C@@H](Cc2ccc(C)cc2)C(=O)N(C)CC(=O)N[C@@H](CCc2ccc(C(F)(F)F)c(Cl)c2)C(=O)N2C[C@H](OCC)C[C@H]2C(=O)NC2(CC(C)(C)C2)C(=O)N(C)[C@@H](CC(C)(C)C)C(=O)N(C)[C@H](C(=O)N(C)C)CC(=O)N1C [PP3026] |  |  | A (a compound having 10 or more and less than 20 is denoted as A) | A (a compound having 10 or more and less than 20 is denoted as A) | 
CCC[C@H]1C(=O)N[C@@H]([C@@H](C)CC)C(=O)N(C)CC(=O)N(C)[C@H]2C/C=C\CCN(C2=O)[C@@H](Cc2ccc(C)cc2)C(=O)N(C)CC(=O)N[C@@H](CCc2ccc(C(F)(F)F)c(OC)c2)C(=O)N2CC3(CC3)C[C@H]2C(=O)NC2(CC(C)(C)C2)C(=O)N(C)[C@@H](CC(C)(C)C)C(=O)N(C)[C@H](C(=O)N(C)C)CC(=O)N1C [PP3009] |  |  | A (a compound having 10 or more and less than 20 is denoted as A) | A (a compound having 10 or more and less than 20 is denoted as A) | 
CCO[C@@H]1C[C@H]2C(=O)NC3(CCC3)C(=O)N(C)[C@@H](C3CCCC3)C(=O)N(C)[C@H](C(=O)N(C)C)CC(=O)N(C)[C@@H](CC)C(=O)N[C@@H]([C@@H](C)CC)C(=O)N(C)CC(=O)N(C)[C@H]3CC(C)=C(C)CN(C3=O)[C@@H](Cc3ccc(C(F)(F)F)cc3)C(=O)N(C)CC(=O)N[C@@H](CCc3cc(F)c(C(F)(F)F)c(F)c3)C(=O)N2C1 [PP1048] |  |  | C (A compound having a KD ratio of 0.1 or more and less than 3 is denoted as C) | C (A compound having a KD ratio of 0.1 or more and less than 3 is denoted as C) | 
CCO[C@@H]1C[C@H]2C(=O)NC3(CC(C)(C)C3)C(=O)N(C)[C@@H](C3CCCC3)C(=O)N(C)[C@H](C(=O)N(C)C)CC(=O)N(C)[C@@H](CC(C)C)C(=O)N[C@@H]([C@@H](C)CC)C(=O)N(C)CC(=O)N(C)[C@H]3C/C=C\CCN(C3=O)[C@@H](Cc3ccc(C)cc3F)C(=O)N(C)CC(=O)N[C@@H](CCc3ccc(C(F)(F)F)c(OC)c3)C(=O)N2C1 [PP2688] | B (a compound having 3 or more and less than 10 is denoted as B) | A (a compound having 10 or more and less than 20 is denoted as A) |  |  | 
CCO[C@@H]1C[C@H]2C(=O)NC3(CC(C)(C)C3)C(=O)N(C)[C@@H](CC(C)(C)C)C(=O)N(C)[C@H](C(=O)N(C)C)CC(=O)N(C)[C@@H](COC)C(=O)N[C@@H]([C@@H](C)CC)C(=O)N(C3CC3)CC(=O)N(C)[C@H]3C/C=C\CCN(C3=O)[C@@H](Cc3ccc(C(F)(F)F)cc3)C(=O)N(C)CC(=O)N[C@@H](CCc3ccc(Cl)c(Cl)c3)C(=O)N2C1 [PP2750] | A (a compound having 10 or more and less than 20 is denoted as A) | AA (a compound having 20 or more is denoted as AA) |  |  | 
CCC[C@@H]1C[C@H]2C(=O)NC3(CCC3)C(=O)N(C)[C@@H](C3CCCC3)C(=O)N(C)[C@H](C(=O)N(C)C)CC(=O)N(C)[C@@H](CC)C(=O)N[C@@H]([C@@H](C)CC)C(=O)N(C)CC(=O)N(C)[C@H]3C/C=C\CCN(C3=O)[C@@H](Cc3ccc(C)cc3)C(=O)N(C)CC(=O)N[C@@H](CCc3cc(F)c(C(F)(F)F)c(F)c3)C(=O)N2C1 [PP2233] |  |  | A (a compound having 10 or more and less than 20 is denoted as A) | A (a compound having 10 or more and less than 20 is denoted as A) | 
CCO[C@@H]1C[C@H]2C(=O)NC3(CCC3)C(=O)N(C)[C@@H](C3CCCC3)C(=O)N(C)[C@H](C(=O)N(C)CC)CC(=O)N(C)[C@@H](CC(C)C)C(=O)N[C@@H]([C@@H](C)CC)C(=O)N(C)CC(=O)N(C)[C@H]3C/C=C\CCN(C3=O)[C@@H](Cc3ccc(C(F)(F)F)cc3)C(=O)N(C)CC(=O)N[C@@H](CCc3ccc(Cl)c(Cl)c3)C(=O)N2C1 [PP2845] | A (a compound having 10 or more and less than 20 is denoted as A) | AA (a compound having 20 or more is denoted as AA) |  |  | 
CCC[C@H]1C(=O)N[C@@H]([C@@H](C)CC)C(=O)N(C)CC(=O)N(C)[C@H]2C/C=C\CCN(C2=O)[C@@H](Cc2ccc(C)cc2)C(=O)N(C)CC(=O)N[C@@H](CCc2ccc(CC)c(Cl)c2)C(=O)N2C[C@H](OCC)C[C@H]2C(=O)NC2(CC(C)(C)C2)C(=O)N(C)[C@@H](C(CC)CC)C(=O)N(C)[C@H](C(=O)N(C)C)CC(=O)N1C [PP2779] | A (a compound having 10 or more and less than 20 is denoted as A) | A (a compound having 10 or more and less than 20 is denoted as A) |  |  | 
CCC[C@H]1C(=O)N[C@@H](C2CCCC2)C(=O)N(C)CC(=O)N(C)[C@H]2C/C=C\CCN(C2=O)[C@@H](Cc2ccc(C)cc2)C(=O)N(C)CC(=O)N[C@@H](CCc2ccc(C(F)(F)F)c(Cl)c2)C(=O)N2C[C@H](OCC)C[C@H]2C(=O)NC2(CC(C)(C)C2)C(=O)N(C)[C@@H](CC(F)(F)F)C(=O)N(C)[C@H](C(=O)N(C)C)CC(=O)N1C [PP2192] |  |  | A (a compound having 10 or more and less than 20 is denoted as A) | A (a compound having 10 or more and less than 20 is denoted as A) | 
CCC[C@H]1C(=O)N[C@@H]([C@@H](C)CC)C(=O)N(C2CC2)CC(=O)N(C)[C@H]2C/C=C\CCN(C2=O)[C@@H](Cc2ccc(C)cc2)C(=O)N(C)CC(=O)N[C@@H](CCc2cc(C)c(C(F)F)c(C)c2)C(=O)N2C[C@H](OCC)C[C@H]2C(=O)NC2(CC(C)(C)C2)C(=O)N(C)[C@@H](C2CCCC2)C(=O)N(C)[C@H](C(=O)N(C)C)CC(=O)N1C [PP2873] | A (a compound having 10 or more and less than 20 is denoted as A) | A (a compound having 10 or more and less than 20 is denoted as A) |  |  | 
CCC[C@H]1C(=O)N[C@@H]([C@@H](C)CC)C(=O)N(C)CC(=O)N(C)[C@H]2C/C=C\CCN(C2=O)[C@@H](Cc2ccc(C(F)(F)F)cc2)C(=O)N(C)CC(=O)N[C@@H](CCc2cc(C)c(C(F)F)c(F)c2)C(=O)N2C[C@H](OCC)C[C@H]2C(=O)NC2(CC(C)(C)C2)C(=O)N(C)[C@@H](C2CCCC2)C(=O)N(C)[C@H](C(=O)N(C)C)CC(=O)N1C [PP2860] | A (a compound having 10 or more and less than 20 is denoted as A) | A (a compound having 10 or more and less than 20 is denoted as A) |  |  | 
